One assay deals with Human plasma kallikrein (Homo sapiens (Human), UniProt P03952). The assay can be described thus: Kallikrein Assay (fluorogenic substrate Acetyl-K-P-R-AFC). The settings on record: Plasma Kallikrein (PKal). Type of assay: biochemical. The method in brief:
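Ki is derived from IC50 with the Cheng-Prusoff equation, and IC50 from the inflection point of a four-parameter logistic curve. The rate of AFC release is read with 0.5 nM purified enzyme and […] substrate at room temperature or 37 °C.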

A further assay has as its target human Factor XIa (Homo sapiens (Human), UniProt P03951). Put plainly: Factor XIa Assay (fluorogenic substrate GPR-AFC). The class given is biochemical. The settings on record: Factor XIa (FXIa).

Chain of human Factor XIa (P03951 388-625 limits assumed): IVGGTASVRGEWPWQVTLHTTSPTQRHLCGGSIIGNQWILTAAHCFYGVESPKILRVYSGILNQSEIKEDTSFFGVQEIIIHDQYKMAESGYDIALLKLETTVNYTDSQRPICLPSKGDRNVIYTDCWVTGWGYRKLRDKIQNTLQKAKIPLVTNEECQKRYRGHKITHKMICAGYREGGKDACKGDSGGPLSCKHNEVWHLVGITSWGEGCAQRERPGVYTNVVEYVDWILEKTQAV
Chain of human Factor XIa (P03951 19-387 partner limits assumed): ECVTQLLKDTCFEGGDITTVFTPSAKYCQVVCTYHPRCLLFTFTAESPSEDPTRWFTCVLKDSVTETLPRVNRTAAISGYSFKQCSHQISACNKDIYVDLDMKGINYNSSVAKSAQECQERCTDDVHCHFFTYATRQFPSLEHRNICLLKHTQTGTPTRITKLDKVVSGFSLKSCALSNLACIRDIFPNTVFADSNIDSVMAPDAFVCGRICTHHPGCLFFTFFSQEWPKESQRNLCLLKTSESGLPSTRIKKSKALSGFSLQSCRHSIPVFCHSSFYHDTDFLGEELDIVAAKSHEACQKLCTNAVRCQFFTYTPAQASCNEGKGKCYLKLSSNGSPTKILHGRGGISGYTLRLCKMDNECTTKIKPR
Chain of Human plasma kallikrein (P03952 391-638): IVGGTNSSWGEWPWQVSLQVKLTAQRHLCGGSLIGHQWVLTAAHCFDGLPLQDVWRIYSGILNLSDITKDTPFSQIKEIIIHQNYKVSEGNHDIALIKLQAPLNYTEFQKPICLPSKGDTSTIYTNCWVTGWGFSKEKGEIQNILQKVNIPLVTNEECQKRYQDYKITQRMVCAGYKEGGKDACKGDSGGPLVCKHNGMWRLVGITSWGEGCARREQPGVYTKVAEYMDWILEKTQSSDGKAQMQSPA
Chain of Human plasma kallikrein (P03952 20-390 partner): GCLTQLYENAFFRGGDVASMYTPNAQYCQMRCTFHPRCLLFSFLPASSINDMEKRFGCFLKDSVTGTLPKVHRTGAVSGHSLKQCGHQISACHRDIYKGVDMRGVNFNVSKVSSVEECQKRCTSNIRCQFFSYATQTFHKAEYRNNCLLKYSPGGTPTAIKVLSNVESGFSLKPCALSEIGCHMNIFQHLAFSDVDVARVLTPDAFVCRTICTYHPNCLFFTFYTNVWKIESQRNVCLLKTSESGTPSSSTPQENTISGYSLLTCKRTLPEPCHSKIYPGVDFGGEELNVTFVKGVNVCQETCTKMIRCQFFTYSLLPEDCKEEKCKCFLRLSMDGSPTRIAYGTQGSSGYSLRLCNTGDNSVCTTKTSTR

As to `CC(c1cnc(N2C[C@H]3C[C@H]3C2=O)c(F)c1)n1cc(NC(=O)c2nc(-c3c(C(F)F)ccc(Cl)c3F)cnc2COC(C)(C)C)cn1` (single isomer, unassigned) [Example 143, 3-(tert-Butoxymethyl)-6-(3-chloro-6-(difluoromethyl)-2-fluorophenyl)-N-(1-((S or R)-1-(5-fluoro-6-((1R,5S)-2-oxo-3-azabicyclo[3.1.0]hexan-3-yl)pyridin-3-yl)ethyl)-1H-pyrazol-4-yl)pyrazine-2-carboxamide], the 50% inhibitory concentration (IC50) stood at 4.9 nM against Human plasma kallikrein and 4310 nM at human Factor XIa.
For `CC(c1cnc(N2C[C@H]3C[C@H]3C2=O)c(F)c1)n1cc(NC(=O)c2nc(-c3c(C(F)F)ccc(Cl)c3F)cnc2COC(C)(C)C)cn1` (single isomer, unassigned) [Example 144, 3-(tert-Butoxymethyl)-6-(3-chloro-6-(difluoromethyl)-2-fluorophenyl)-N-(1-((R or S)-1-(5-fluoro-6-((1R,5S)-2-oxo-3-azabicyclo[3.1.0]hexan-3-yl)pyridin-3-yl)ethyl)-1H-pyrazol-4-yl)pyrazine-2-carboxamide], in that order: 1.6 nM and more than 10000 nM.
Taken in the same sequence, the figures for `CC(c1ncc(N2C[C@H]3C[C@H]3C2=O)cc1F)n1cc(NC(=O)c2cncc(-c3c(C(F)F)ccc(Cl)c3F)n2)cn1` (single isomer, unassigned) [Example 146, 6-(3-Chloro-6-(difluoromethyl)-2-fluorophenyl)-N-(1-((R or S)-1-(3-fluoro-5-((1R,5S)-2-oxo-3-azabicyclo[3.1.0]hexan-3-yl)pyridin-2-yl)ethyl)-1H-pyrazol-4-yl)pyrazine-2-carboxamide] were 9.8 nM and more than 10000 nM.
For `Cc1ncc(-c2c(C(F)F)ccc(Cl)c2F)nc1C(=O)Nc1cnn(C(C)c2ncc(N3C[C@H]4C[C@H]4C3=O)cc2Cl)c1` (single isomer, unassigned) [Example 147, N-(1-((R or S)-1-(3-Chloro-5-((1R,5S)-2-oxo-3-azabicyclo[3.1.0]hexan-3-yl)pyridin-2-yl)ethyl)-1H-pyrazol-4-yl)-6-(3-chloro-6-(difluoromethyl)-2-fluorophenyl)-3-methylpyrazine-2-carboxamide], in that order: 2.9 nM and 7300 nM.
In the case of `Cc1c(C(C)n2cc(NC(=O)c3cncc(-c4c(C(F)F)ccc(Cl)c4F)n3)cn2)cnc(N2C[C@H]3C[C@H]3C2=O)c1C` (single isomer, unassigned) [Example 152, 6-(3-Chloro-6-(difluoromethyl)-2-fluorophenyl)-N-(1-((R or S)-1-(4,5-dimethyl-6-((1R,5S)-2-oxo-3-azabicyclo[3.1.0]hexan-3-yl)pyridin-3-yl)ethyl)-1H-pyrazol-4-yl)pyrazine-2-carboxamide], the IC50 on Human plasma kallikrein was determined as 0.3 nM; against human Factor XIa it was 197 nM.
Take `Cc1c(C(C)n2cc(NC(=O)c3cncc(-c4c(C(F)F)ccc(Cl)c4F)n3)cn2)cnc(N2C[C@H]3C[C@H]3C2=O)c1C` (single isomer, unassigned) [Example 153, 6-(3-Chloro-6-(difluoromethyl)-2-fluorophenyl)-N-(1-((S or R)-1-(4,5-dimethyl-6-((1R,5S)-2-oxo-3-azabicyclo[3.1.0]hexan-3-yl)pyridin-3-yl)ethyl)-1H-pyrazol-4-yl)pyrazine-2-carboxamide]: the IC50 amounted to 2 nM against Human plasma kallikrein and 2170 nM against human Factor XIa.
For `COc1c(N2C[C@H]3C[C@H]3C2=O)ncc(C(C)n2cc(NC(=O)c3cncc(-c4c(C(F)F)ccc(Cl)c4F)n3)cn2)c1C` (single isomer, unassigned) [Example 154, 6-(3-Chloro-6-(difluoromethyl)-2-fluorophenyl)-N-(1-((R or S)-1-(5-methoxy-4-methyl-6-((1R,5S)-2-oxo-3-azabicyclo[3.1.0]hexan-3-yl)pyridin-3-yl)ethyl)-1H-pyrazol-4-yl)pyrazine-2-carboxamide], in that order: 0.3 nM and 661 nM.
For `COc1c(N2C[C@H]3C[C@H]3C2=O)ncc(C(C)n2cc(NC(=O)c3cncc(-c4c(C(F)F)ccc(Cl)c4F)n3)cn2)c1C` (single isomer, unassigned) [Example 155, 6-(3-Chloro-6-(difluoromethyl)-2-fluorophenyl)-N-(1-((S or R)-1-(5-methoxy-4-methyl-6-((1R,5S)-2-oxo-3-azabicyclo[3.1.0]hexan-3-yl)pyridin-3-yl)ethyl)-1H-pyrazol-4-yl)pyrazine-2-carboxamide], in that order: 7.1 nM and 8200 nM.
Taken in the same sequence, the figures for `O=C(Nc1cnn(C(CO)c2cnc(N3CC4CC4C3=O)nc2)c1)c1cncc(-c2c(C(F)F)ccc(Cl)c2F)n1` (single isomer, unassigned) [Example 161, 6-(3-chloro-6-(difluoromethyl)-2-fluorophenyl)-N-(1-((S or R)-2-hydroxy-1-(2-((1S,5R or 1R,5S)-2-oxo-3-azabicyclo[3.1.0]hexan-3-yl)pyrimidin-5-yl)ethyl)-1H-pyrazol-4-yl)pyrazine-2-carboxamide] were 26.7 nM and more than 10000 nM.
As to `Cc1ncc(-c2c(C(F)F)ccc(Cl)c2F)nc1C(=O)Nc1cnn(C(CO)c2ccc(N3CC4CC4C3=O)nc2)c1` (single isomer, unassigned) [Example 162, 6-(3-chloro-6-(difluoromethyl)-2-fluorophenyl)-N-(1-((S or R)-2-hydroxy-1-(6-((1S,5R or 1R,5S)-2-oxo-3-azabicyclo[3.1.0]hexan-3-yl)pyridin-3-yl)ethyl)-1H-pyrazol-4-yl)-3-methylpyrazine-2-carboxamide], the results for the IC50 at Human plasma kallikrein and against human Factor XIa were 8.7 nM and 3450 nM, respectively.
For `Cc1ncc(-c2c(C(F)F)ccc(Cl)c2F)nc1C(=O)Nc1cnn(C(CO)c2ccc(N3CC4CC4C3=O)nc2)c1` (single isomer, unassigned) [Example 163, 6-(3-Chloro-6-(difluoromethyl)-2-fluorophenyl)-N-(1-((S or R)-2-hydroxy-1-(6-((1S,5R or 1R,5S)-2-oxo-3-azabicyclo[3.1.0]hexan-3-yl)pyridin-3-yl)ethyl)-1H-pyrazol-4-yl)-3-methylpyrazine-2-carboxamide], in that order: 9.2 nM and more than 10000 nM.
With `Cc1ncc(-c2c(C(F)F)ccc(Cl)c2F)nc1C(=O)Nc1cnn(C(CO)c2cnc(N3C[C@H]4C[C@H]4C3=O)nc2)c1` (single isomer, unassigned) [Example 164, 6-(3-Chloro-6-(difluoromethyl)-2-fluorophenyl)-N-(1-((R or S)-2-hydroxy-1-(2-((1R,5S)-2-oxo-3-azabicyclo[3.1.0]hexan-3-yl)pyrimidin-5-yl)ethyl)-1H-pyrazol-4-yl)-3-methylpyrazine-2-carboxamide], the IC50 against Human plasma kallikrein came to 5.4 nM; on human Factor XIa, 4890 nM.
Taken in the same sequence, the figures for `Cc1ncc(-c2c(C(F)F)ccc(Cl)c2F)nc1C(=O)Nc1cnn(C(CO)c2cnc(N3C[C@H]4C[C@H]4C3=O)nc2)c1` (single isomer, unassigned) [Example 165, 6-(3-Chloro-6-(difluoromethyl)-2-fluorophenyl)-N-(1-((S or R)-2-hydroxy-1-(2-((1R,5S)-2-oxo-3-azabicyclo[3.1.0]hexan-3-yl)pyrimidin-5-yl)ethyl)-1H-pyrazol-4-yl)-3-methylpyrazine-2-carboxamide] were 20.7 nM and 2050 nM.
For `Cc1ncc(-c2c(C#N)ccc(Cl)c2F)nc1C(=O)Nc1cnn(C(CO)c2cnc(N3C[C@H]4C[C@H]4C3=O)nc2)c1` (single isomer, unassigned) [Example 166, 6-(3-Chloro-6-cyano-2-fluorophenyl)-N-(1-((R or S)-2-hydroxy-1-(2-((1R,5S)-2-oxo-3-azabicyclo[3.1.0]hexan-3-yl)pyrimidin-5-yl)ethyl)-1H-pyrazol-4-yl)-3-methylpyrazine-2-carboxamide], in that order: 19.7 nM and more than 10000 nM.
Take `Cc1c(C(CO)n2cc(NC(=O)c3cncc(-c4c(C(F)F)ccc(Cl)c4F)n3)cn2)cnc(N2C[C@H]3C[C@H]3C2=O)c1C` (single isomer, unassigned) [Example 167, 6-(3-Chloro-6-(difluoromethyl)-2-fluorophenyl)-N-(1-([R or S)-1-(4,5-dimethyl-6-((1R,5S)-2-oxo-3-azabicyclo[3.1.0]hexan-3-yl)pyridin-3-yl)-2-hydroxyethyl)-1H-pyrazol-4-yl)pyrazine-2-carboxamide]: the figures for the IC50 at Human plasma kallikrein and against human Factor XIa were 10.5 nM and 3650 nM, respectively.
For `Cc1c(C(CO)n2cc(NC(=O)c3cncc(-c4c(C(F)F)ccc(Cl)c4F)n3)cn2)cnc(N2C[C@H]3C[C@H]3C2=O)c1C` (single isomer, unassigned) [Example 168, 6-(3-Chloro-6-(difluoromethyl)-2-fluorophenyl)-N-(1-((S or R)-1-(4,5-dimethyl-6-((1R,5S)-2-oxo-3-azabicyclo[3.1.0]hexan-3-yl)pyridin-3-yl)-2-hydroxyethyl)-1H-pyrazol-4-yl)pyrazine-2-carboxamide], in that order: 0.4 nM and 261 nM.
Taken in the same sequence, the figures for `C[C@@H](c1cnc(N2C[C@H]3C[C@H]3C2=O)nc1)n1cc(NC(=O)c2nc(-c3c(C(F)F)ccc(Cl)c3F)cnc2C(O)C(F)(F)F)cn1` (single isomer, unassigned) [Example 176, 6-(3-Chloro-6-(difluoromethyl)-2-fluorophenyl)-N-(1-((S)-1-(2-((1R,5S)-2-oxo-3-azabicyclo[3.1.0]hexan-3-yl)pyrimidin-5-yl)ethyl)-1H-pyrazol-4-yl)-3-((S or R)-2,2,2-trifluoro-1-hydroxyethyl)pyrazine-2-carboxamide] were 5.3 nM and 4550 nM.

The record behind these values is patent publication US20230286958A1, “PLASMA KALLIKREIN INHIBITORS” (Merck Sharp & Dohme LLC, priority 2020, published 2023).
